Assay results as given in PubChem BioAssay (NCI).
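48-hour exposure; five concentrations; linearly interpolated endpoints. The concentration for full growth arrest is given as TGI.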

Columns and labels:
Assay in all cases: NCI anticancer screen, dose series, 48 h
SK-OV-3 ovarian = system: SK-OV-3 ovarian
MDA-N = system: MDA-N
BT-549 breast = system: BT-549 breast
EKVX NSCLC = system: EKVX NSCLC
PC-3 prostate = system: PC-3 prostate
MOLT-4 leukemia = system: MOLT-4 leukemia
SK-MEL-2 melanoma = system: SK-MEL-2 melanoma
RXF 393 renal = system: RXF 393 renal
CAKI-1 renal = system: CAKI-1 renal
SK-MEL-5 melanoma = system: SK-MEL-5 melanoma
SF-295 CNS = system: SF-295 CNS
HCT-116 colon = system: HCT-116 colon
NCI/ADR-RES ovarian = system: NCI/ADR-RES ovarian
SNB-75 CNS = system: SNB-75 CNS
NCI-H522 lung = system: NCI-H522 lung
ACHN renal = system: ACHN renal
HL-60(TB) leukemia = system: HL-60(TB) leukemia
LOX IMVI melanoma = system: LOX IMVI melanoma
M14 melanoma = system: M14 melanoma
HCT-15 colon = system: HCT-15 colon
SF-268 CNS = system: SF-268 CNS
OVCAR-5 ovarian = system: OVCAR-5 ovarian
HS 578T breast = system: HS 578T breast
IGROV1 ovarian = system: IGROV1 ovarian
A549 NSCLC = system: A549 NSCLC
SW-620 colon = system: SW-620 colon
NCI-H23 lung = system: NCI-H23 lung
OVCAR-8 ovarian = system: OVCAR-8 ovarian
TK-10 renal = system: TK-10 renal
KM12 colon = system: KM12 colon
OVCAR-3 ovarian = system: OVCAR-3 ovarian
SR leukemia = system: SR leukemia
786-0 renal = system: 786-0 renal
UO-31 renal = system: UO-31 renal
MDA-MB-435 = system: MDA-MB-435
RPMI-8226 leukemia = system: RPMI-8226 leukemia
MCF7 breast = system: MCF7 breast
MDA-MB-231 breast = system: MDA-MB-231 breast
K-562 leukemia = system: K-562 leukemia
MALME-3M melanoma = system: MALME-3M melanoma
U251 CNS = system: U251 CNS
SK-MEL-28 melanoma = system: SK-MEL-28 melanoma
NCI-H226 lung = system: NCI-H226 lung
HOP-62 NSCLC = system: HOP-62 NSCLC
NCI-H460 lung = system: NCI-H460 lung
SN12C renal = system: SN12C renal
SNB-19 CNS = system: SNB-19 CNS
COLO 205 colon = system: COLO 205 colon
HT29 colon = system: HT29 colon
HCC-2998 colon = system: HCC-2998 colon
CCRF-CEM leukemia = system: CCRF-CEM leukemia
OVCAR-4 ovarian = system: OVCAR-4 ovarian
UACC-257 melanoma = system: UACC-257 melanoma
DU-145 prostate = system: DU-145 prostate
A498 renal = system: A498 renal
SF-539 CNS = system: SF-539 CNS
UACC-62 melanoma = system: UACC-62 melanoma

COC(=O)CCC(C)C1CCC2C3C(C[C@H](OC(C)=O)[C@]12C)[C@@]1(C)CCC2(C[C@H]1C[C@H]3OC(C)=O)OOC1(CC[C@]3(C)C4C[C@H](OC(C)=O)[C@]5(C)C(C(C)CCC(=O)OC)CCC5C4[C@H](OC(C)=O)C[C@@H]3C1)OO2 (some centres undefined)
TGI (SK-OV-3 ovarian): > 100 µM | TGI (MDA-N): > 100 µM | TGI (BT-549 breast): > 100 µM | TGI (EKVX NSCLC): > 100 µM | TGI (PC-3 prostate): > 100 µM | TGI (MOLT-4 leukemia): > 100 µM | TGI (SK-MEL-2 melanoma): > 100 µM | TGI (RXF 393 renal): > 100 µM | TGI (CAKI-1 renal): > 100 µM | TGI (SK-MEL-5 melanoma): > 100 µM | TGI (SF-295 CNS): > 100 µM | TGI (HCT-116 colon): > 100 µM | TGI (NCI/ADR-RES ovarian): > 100 µM | TGI (SNB-75 CNS): > 100 µM | TGI (NCI-H522 lung): > 100 µM | TGI (ACHN renal): > 100 µM | TGI (HL-60(TB) leukemia): > 100 µM | TGI (LOX IMVI melanoma): > 100 µM | TGI (M14 melanoma): > 100 µM | TGI (HCT-15 colon): > 100 µM | TGI (SF-268 CNS): > 100 µM | TGI (OVCAR-5 ovarian): > 100 µM | TGI (HS 578T breast): > 100 µM | TGI (IGROV1 ovarian): > 100 µM | TGI (A549 NSCLC): > 100 µM | TGI (SW-620 colon): > 100 µM | TGI (NCI-H23 lung): > 100 µM | TGI (OVCAR-8 ovarian): > 100 µM | TGI (TK-10 renal): > 100 µM | TGI (KM12 colon): > 100 µM | TGI (OVCAR-3 ovarian): > 100 µM | TGI (SR leukemia): 99.1 µM | TGI (786-0 renal): > 100 µM | TGI (UO-31 renal): > 100 µM | TGI (MDA-MB-435): > 100 µM | TGI (RPMI-8226 leukemia): > 100 µM | TGI (MCF7 breast): > 100 µM | TGI (MDA-MB-231 breast): > 100 µM | TGI (K-562 leukemia): > 100 µM | TGI (MALME-3M melanoma): > 100 µM | TGI (U251 CNS): > 100 µM | TGI (SK-MEL-28 melanoma): > 100 µM | TGI (NCI-H226 lung): > 100 µM | TGI (HOP-62 NSCLC): > 100 µM | TGI (NCI-H460 lung): > 100 µM | TGI (SN12C renal): > 100 µM | TGI (SNB-19 CNS): > 100 µM | TGI (COLO 205 colon): > 100 µM | TGI (HT29 colon): > 100 µM | TGI (HCC-2998 colon): > 100 µM | TGI (CCRF-CEM leukemia): > 100 µM | TGI (OVCAR-4 ovarian): > 100 µM | TGI (UACC-257 melanoma): > 100 µM | TGI (DU-145 prostate): > 100 µM

Cn1c(=O)sc2cc(C(=S)N3CCC(Cc4ccccc4)CC3)ccc21
TGI (SK-OV-3 ovarian): > 100 µM | TGI (MDA-N): > 100 µM | TGI (BT-549 breast): > 100 µM | TGI (EKVX NSCLC): > 100 µM | TGI (PC-3 prostate): > 100 µM | TGI (MOLT-4 leukemia): > 100 µM | TGI (SK-MEL-2 melanoma): > 100 µM | TGI (RXF 393 renal): > 100 µM | TGI (CAKI-1 renal): > 100 µM | TGI (SK-MEL-5 melanoma): > 100 µM | TGI (SF-295 CNS): > 100 µM | TGI (HCT-116 colon): > 100 µM | TGI (NCI/ADR-RES ovarian): > 100 µM | TGI (ACHN renal): > 100 µM | TGI (HL-60(TB) leukemia): > 100 µM | TGI (LOX IMVI melanoma): > 100 µM | TGI (M14 melanoma): > 100 µM | TGI (HCT-15 colon): > 100 µM | TGI (SF-268 CNS): > 100 µM | TGI (OVCAR-5 ovarian): > 100 µM | TGI (HS 578T breast): > 100 µM | TGI (IGROV1 ovarian): > 100 µM | TGI (A498 renal): > 100 µM | TGI (SW-620 colon): > 100 µM | TGI (NCI-H23 lung): > 100 µM | TGI (OVCAR-8 ovarian): > 100 µM | TGI (TK-10 renal): > 100 µM | TGI (KM12 colon): > 100 µM | TGI (OVCAR-3 ovarian): > 100 µM | TGI (SR leukemia): > 100 µM | TGI (786-0 renal): > 100 µM | TGI (MDA-MB-435): > 100 µM | TGI (RPMI-8226 leukemia): > 100 µM | TGI (MCF7 breast): > 100 µM | TGI (MDA-MB-231 breast): > 100 µM | TGI (K-562 leukemia): > 100 µM | TGI (U251 CNS): 78.1 µM | TGI (SK-MEL-28 melanoma): > 100 µM | TGI (NCI-H226 lung): > 100 µM | TGI (HOP-62 NSCLC): > 100 µM | TGI (NCI-H460 lung): > 100 µM | TGI (SN12C renal): > 100 µM | TGI (SF-539 CNS): > 100 µM | TGI (SNB-19 CNS): > 100 µM | TGI (UACC-62 melanoma): > 100 µM | TGI (COLO 205 colon): > 100 µM | TGI (HT29 colon): > 100 µM | TGI (CCRF-CEM leukemia): > 100 µM | TGI (UACC-257 melanoma): > 100 µM | TGI (DU-145 prostate): > 100 µM
